Measured values: patent US9024033B2, “Anti-malarial agents” (MMV Medicines for Malaria Venture, priority 2010, dated 2015)
Converted amounts (≈) assume the structure as drawn.

Key:
Type in all cases: cell-based
P. falciparum (K1) = test: Assay 1: anti-malarial in vitro efficacy, P. falciparum K1; settings: Plasmodium falciparum; strain K1, assay 1
Experimental: (§1) The ability of aminopyridine derivatives according to the invention to kill P. falciparum parasites and/or to inhibit its proliferation was tested as follows:
(§2) Assay 1: The protocol used was as described in the supplemental material to Fiddock et al., 2004, Nature Reviews Drug Discovery, (3), p 509. […]

P. falciparum (NF54) = test: Assay 1: anti-malarial in vitro efficacy, P. falciparum NF54; settings: Plasmodium falciparum; strain NF54, assay 1
Experimental: as §1, §2

P. falciparum (3D7) = test: Assay 2: DAPI imaging assay of parasite replication, P. falciparum 3D7; settings: Plasmodium falciparum, strain 3D7, 1.8 μM, 72 hours
Experimental: as §1
(§3) Assay 2: Compounds were incubated in the presence of 2 or 3% ring stage parasite (P. falciparum 3D7 or Dd2) and 0.3% hematocrite in a total assay volume of 50 μL, for 72 hours in a humidified atmosphere at 37° C., 5% O2 and 5% CO2, in Poly-D-lysine coated Cell Carrier Imaging plates (Perkin Elmer). After incubation plates were stained with DAPI (4′,6-diamidino-2-phenylindole, Invitrogen) in the presence of Saponin and Triton X-100 (Sigma-Aldrich) and incubated for a further 5 hours at RT in the dark before imaging on the OPERATM HTS confocal imaging system (Perkin Elmer). The digital images obtained were then analyzed using the PerkinElmer Acapella spot detection software where spots which fulfil the criteria established for a stained parasite are counted. The % inhibition of parasite replication was calculated using DMSO and 2 μM Artemisinin control data. Measured % inhibition and EC50 (ng/ml) are reported in Tables 5 & 6 below against different strains of P. falciparum K1, NF54 (assay 1) and 3D7, Dd2 (assay 2), respectively).

P. falciparum (Dd2) = test: Assay 2: DAPI imaging assay of parasite replication, P. falciparum Dd2; settings: Plasmodium falciparum, strain Dd2, 1.8 μM, 72 hours
Experimental: as §1, §3

Compound `CS(=O)(=O)c1ccc(-c2cnc(N)c(-c3ccc(C#N)cc3)c2)cc1` [Compound 25, 4-{2-amino-5-[4-(methylsulfonyl)-phenyl]pyridin-3-yl}benzonitrile] has an EC50 (P. falciparum (K1)) of 0.051 µg/mL (≈ 0.146 µM) and an EC50 (P. falciparum (NF54)) of 0.056 µg/mL (≈ 0.16 µM).

For `CS(=O)(=O)c1ccc(-c2cnc(N)c(-c3ccc(CO)nc3)c2)cc1` [Compound 69, {5-[2-amino-5-(4-(methylsulfonyl)-phenyl)pyridin-3-yl]pyridin-2-yl}methanol], the EC50 (P. falciparum (K1)) was 0.06 µg/mL (≈ 0.169 µM) and the EC50 (P. falciparum (NF54)) was 0.061 µg/mL (≈ 0.172 µM).

In the case of `CS(=O)(=O)c1ccc(-c2cnc(N)c(-c3ccc(S(C)(=O)=O)nc3)c2)cc1` [Compound 78, 5-[4-(methylsulfonyl)phenyl]-3-[2-(methylsulfonyl)-pyridin-5-yl]pyridin-2-amine], the EC50 (P. falciparum (K1)) is reported as 0.11 µg/mL (≈ 0.273 µM) and the EC50 (P. falciparum (NF54)) is reported as 0.094 µg/mL (≈ 0.233 µM).

Compound `CS(=O)(=O)c1ccc(-c2cnc(N)c(-c3ccc(C(F)(F)F)nc3)c2)cc1` [Compound 44, 3-[2-(trifluoromethyl)pyridin-5-yl]-5-[4-(methylsulfonyl)phenyl] pyridin-2-amine] has an EC50 (P. falciparum (K1)) of 0.01 µg/mL (≈ 0.0254 µM).

`CS(=O)(=O)c1ccc(-c2cnc(N)c(-c3ccc(S(C)(=O)=O)cc3)c2)cc1` [Compound 17, 3,5-di-[4-(methylsulfonyl)phenyl]pyridin-2-amine] was tested, and the EC50 (P. falciparum (K1)) was 0.032 µg/mL (≈ 0.0795 µM) and the EC50 (P. falciparum (NF54)) was 0.031 µg/mL (≈ 0.077 µM).

`CS(=O)(=O)c1ccc(-c2cnc(N)c(-c3ccnc(C(F)(F)F)c3)c2)cc1` [Compound 42, 3-[2-(trifluoromethyl)pyridin-4-yl]-5-[4-(methylsulfonyl)phenyl] pyridin-2-amine] was tested, and the EC50 (P. falciparum (K1)) was 0.061 µg/mL (≈ 0.155 µM) and the EC50 (P. falciparum (NF54)) was 0.071 µg/mL (≈ 0.18 µM).

With `CN1CCN(c2ccc(-c3cc(-c4ccc(O)cc4)cnc3N)cc2)CC1` [Compound 9, 4-[6-amino-5-[4-(4-methylpiperazin-1-yl)phenyl]pyridin-3-yl]phenol] the inhibition at 1.8 µM (P. falciparum (3D7)) was 76% and the inhibition at 1.8 µM (P. falciparum (Dd2)) was 53%.

In the case of `CN(C)CC(=O)Nc1ccc(-c2cc(-c3ccc(S(C)(=O)=O)cc3)cnc2N)cc1` [Compound 75, N-{4-[2-amino-5-(4-(methylsulfonyl)phenyl)pyridin-3-yl]phenyl}-2-(dimethylamino) acetamide], the EC50 (P. falciparum (K1)) is reported as 0.11 µg/mL (≈ 0.259 µM) and the EC50 (P. falciparum (NF54)) is reported as 0.088 µg/mL (≈ 0.207 µM).

With `CS(=O)(=O)c1ccc(-c2cnc(N)c(-c3cccc(O)c3)c2)cc1` [Compound 3, 3-[2-amino-5-(4-methylsulfonylphenyl)pyridin-3-yl]phenol] the inhibition at 1.8 µM (P. falciparum (3D7)) was 99% and the inhibition at 1.8 µM (P. falciparum (Dd2)) was 94%.

Work on `CS(=O)(=O)c1ccc(-c2cnc(N)c(-c3cccc(C#N)c3)c2)cc1` [Compound 26, 3-{2-amino-5-[4-(methylsulfonyl)-phenyl]pyridin-3-yl}benzonitrile] yielded an EC50 (P. falciparum (K1)) of 0.059 µg/mL (≈ 0.169 µM) and an EC50 (P. falciparum (NF54)) of 0.061 µg/mL (≈ 0.175 µM).

With `CS(=O)(=O)c1ccc(-c2cnc(N)c(-c3ccc(-n4cccn4)cc3)c2)cc1` [Compound 47, 3-[4-(1H-pyrazol-1-yl)phenyl]-5-[4-(methylsulfonyl)phenyl] pyridin-2-amine] the EC50 (P. falciparum (K1)) was 0.085 µg/mL (≈ 0.218 µM) and the EC50 (P. falciparum (NF54)) was 0.089 µg/mL (≈ 0.228 µM).

Work on `CC(=O)Nc1ccc(-c2cc(-c3ccc(S(C)(=O)=O)cc3)cnc2N)cn1` [Compound 79, N-{5-[2-amino-5-(4-(methylsulfonyl)-phenyl)pyridin-3-yl]pyridin-2-yl}acetamide] yielded an EC50 (P. falciparum (K1)) of 0.046 µg/mL (≈ 0.12 µM) and an EC50 (P. falciparum (NF54)) of 0.047 µg/mL (≈ 0.123 µM).

Compound `CS(=O)(=O)c1ccc(-c2cnc(N)c(-c3ccc(C(N)=O)cc3)c2)cc1` [Compound 28, 4-{2-amino-5-[4-(methylsulfonyl)phenyl]pyridin-3-yl} benzamide] has an EC50 (P. falciparum (K1)) of 0.01 µg/mL (≈ 0.0272 µM) and an EC50 (P. falciparum (NF54)) of 0.01 µg/mL (≈ 0.0272 µM).

Compound `CS(=O)(=O)c1ccc(-c2cnc(N)c(-c3ccc(C(F)(F)F)cc3)c2)cc1` [Compound 85, 3-[4-(trifluoromethyl)phenyl]-5-[4-(methylsulfonyl)phenyl]pyridin-2-amine] has an EC50 (P. falciparum (K1)) of 0.0086 µg/mL (≈ 0.0219 µM) and an EC50 (P. falciparum (NF54)) of 0.0081 µg/mL (≈ 0.0206 µM).

`Cc1ccc(-c2cc(-c3ccc(S(C)(=O)=O)cc3)cnc2N)cn1` [Compound 43, 3-(2-methylpyridin-5-yl)-5-[4-(methylsulfonyl)phenyl] pyridin-2-amine] gave an EC50 (P. falciparum (K1)) of 0.0098 µg/mL (≈ 0.0289 µM) and an EC50 (P. falciparum (NF54)) of 0.0094 µg/mL (≈ 0.0277 µM).

Compound `CS(=O)(=O)c1ccc(-c2cnc(N)c(-c3ccc4ncccc4c3)c2)cc1` [Compound 59, 5-[4-(methylsulfonyl)phenyl]-3-(quinolin-6-yl) pyridin-2-amine] has an EC50 (P. falciparum (K1)) of 0.098 µg/mL (≈ 0.261 µM) and an EC50 (P. falciparum (NF54)) of 0.107 µg/mL (≈ 0.285 µM).

For `CNC(=O)c1ccc(-c2cc(-c3ccc(S(C)(=O)=O)cc3)cnc2N)cc1` [Compound 29, 4-{2-amino-5-[4-(methylsulfonyl)-phenyl]pyridin-3-yl}-N-methyl benzamide], the EC50 (P. falciparum (K1)) was 0.026 µg/mL (≈ 0.0682 µM) and the EC50 (P. falciparum (NF54)) was 0.03 µg/mL (≈ 0.0786 µM).

`NC(=O)c1ccc(-c2cc(-c3ccc(C(=O)N4CCOCC4)cc3)cnc2N)cc1` [Compound 71, {4-[2-amino-3-(4-carbamoyl phenyl)pyridin-5-yl]phenyl}-(morpholino) methanone] showed an EC50 (P. falciparum (K1)) of 0.0068 µg/mL (≈ 0.0169 µM) and an EC50 (P. falciparum (NF54)) of 0.0079 µg/mL (≈ 0.0196 µM).

`Cc1cc(-c2cnc(N)c(-c3ccc(N4CCN(C)CC4)cc3)c2)cc(C)c1O` [Compound 7, 4-[6-amino-5-[4-(4-methylpiperazin-1-yl)phenyl]pyridin-3-yl]-2,6-dimethylphenol] was tested, and the inhibition at 1.8 µM (P. falciparum (3D7)) was 93% and the inhibition at 1.8 µM (P. falciparum (Dd2)) was 96%.

In the case of `CS(=O)(=O)c1ccc(-c2cnc(N)c(-c3cccc(OC(F)(F)F)c3)c2)cc1` [Compound 36, 5-[4-(methysulfonyl)phenyl]-3-[3-(trifluoromethoxy)phenyl] pyridin-2-amine], the EC50 (P. falciparum (K1)) is reported as 0.074 µg/mL (≈ 0.181 µM) and the EC50 (P. falciparum (NF54)) is reported as 0.078 µg/mL (≈ 0.191 µM).

`CS(=O)(=O)c1ccc(-c2cnc(N)c(-c3cnc(N)nc3)c2)cc1` [Compound 55, 5-{2-amino-5-[4-(methylsulfonyl)-phenyl]pyridin-3-yl}pyrimidin-2-amine] gave an EC50 (P. falciparum (K1)) of 0.041 µg/mL (≈ 0.12 µM) and an EC50 (P. falciparum (NF54)) of 0.04 µg/mL (≈ 0.117 µM).

`CS(=O)(=O)c1ccc(-c2cnc(N)c(-c3ccc(OC(F)(F)F)cc3)c2)cc1` [Compound 37, 5-[4-(methylsulfonyl)phenyl]-3-[4-(trifluoromethoxy)phenyl]pyridin-2-amine] showed an EC50 (P. falciparum (K1)) of 0.097 µg/mL (≈ 0.238 µM) and an EC50 (P. falciparum (NF54)) of 0.099 µg/mL (≈ 0.242 µM).

With `COc1ccc(-c2cc(-c3ccc(CO)cc3)cnc2N)cn1` [Compound 8, [4-[6-amino-5-(6-methoxypyridin-3-yl)pyridin-3-yl]phenyl]methanol] the inhibition at 1.8 µM (P. falciparum (3D7)) was 83%.

`COc1ccc(-c2cc(-c3ccc(S(C)(=O)=O)cc3)cnc2N)cn1` [Compound 1, 3-(6-Methoxypyridin-3-yl)-5-(4-methylsulfonylphenyl) pyridin-2-amine] showed an EC50 (P. falciparum (K1)) of 0.014 µg/mL (≈ 0.0394 µM).

Work on `COc1ccc(-c2cnc(N)c(-c3ccc(O)c(OC)c3)c2)cn1` [Compound 6, 4-[2-amino-5-(6-methoxypyridin-3-yl)pyridin-3-yl]-2-methoxyphenol] yielded an inhibition at 1.8 µM (P. falciparum (3D7)) of 98% and an inhibition at 1.8 µM (P. falciparum (Dd2)) of 98%.

With `COc1ncc(-c2cc(-c3ccc(S(C)(=O)=O)cc3)cnc2N)cn1` [Compound 31, 3-(2-methoxypyrimidin-5-yl)-5-[4-(methylsulfonyl)phenyl]pyridin-2-amine] the EC50 (P. falciparum (K1)) was 0.098 µg/mL (≈ 0.275 µM) and the EC50 (P. falciparum (NF54)) was 0.093 µg/mL (≈ 0.261 µM).

`CS(=O)(=O)c1ccc(-c2cnc(N)c(-c3cccc(C(F)(F)F)c3)c2)cc1` [Compound 2, 5-(4-methylsulfonylphenyl)-3-[3-(trifluoromethyl)phenyl]pyridin-2-amine] gave an EC50 (P. falciparum (K1)) of 0.031 µg/mL (≈ 0.079 µM), an EC50 (P. falciparum (NF54)) of 0.041 µg/mL (≈ 0.104 µM) and an inhibition at 1.8 µM (P. falciparum (3D7)) of 99%. The inhibition at 1.8 µM (P. falciparum (Dd2)) was 96%.

`CS(=O)(=O)c1ccc(-c2cnc(N)c(-c3ccc(O)cc3)c2)cc1` [Compound 5, 4-[2-amino-5-(4-methylsulfonylphenyl)pyridin-3-yl]phenol] was tested, and the inhibition at 1.8 µM (P. falciparum (3D7)) was 98% and the inhibition at 1.8 µM (P. falciparum (Dd2)) was 98%.

With `NC(=O)c1ccc(-c2cnc(N)c(-c3ccc(C(N)=O)cc3)c2)cc1` [Compound 80, 4-[2-amino-3-(4-benzamido)pyridin-5-yl]benzamide] the EC50 (P. falciparum (K1)) was 0.028 µg/mL (≈ 0.0842 µM) and the EC50 (P. falciparum (NF54)) was 0.025 µg/mL (≈ 0.0752 µM).

`COc1cc(-c2cc(-c3ccc(S(C)(=O)=O)cc3)cnc2N)ccc1O` [Compound 4, 4-[2-amino-5-(4-methylsulfonylphenyl)pyridin-3-yl]-2-methoxyphenol] showed an inhibition at 1.8 µM (P. falciparum (3D7)) of 99% and an inhibition at 1.8 µM (P. falciparum (Dd2)) of 96%.

Work on `Cc1ccc(-c2cc(-c3ccc(S(C)(=O)=O)cc3)cnc2N)cc1` [Compound 65, 5-[4-(methylsulfonyl)phenyl]-3-p-tolylpyridin-2-amine] yielded an EC50 (P. falciparum (K1)) of 0.033 µg/mL (≈ 0.0975 µM) and an EC50 (P. falciparum (NF54)) of 0.034 µg/mL (≈ 0.1 µM).
